As a reminder, the CC50 is the concentration at which the toxic effect on the cells reaches its halfway point. Lower therefore signals greater toxicity to the cells. Broadly, the solubility is how much of the substance goes into solution per volume.

Experimental findings from US5216142A, “Anti-virals” (Efamol Holdings plc, priority 1989, dated 1993) are described below.

Molecules are shown by their SMILES. Values after ≈ are worked out from the molar mass of the structure shown. “Also recorded” adds a separate entry of the source. Read-outs that look alike come from different tables or passages of the source.

Series [1] has as its system herpes simplex virus Type I. Description: Inactivation of virus (30 minutes incubation, plaque assay). The conditions noted are these: for log reduction at 1 µg/mL: 1 mg/l; for log reduction at 5 µg/mL: 5 mg/l. In kind it is cell-based, Type 1, Troisbel strain. As to the method:
1. A virus solution containing 2×10^5 pfu/ml is prepared in phosphate buffered saline (Dulbecco's A).
2. The compound to be tested is made up in Dulbecco's medium A in a suitable range of dilutions.
3. Equal volumes of the virus and drug solution are mixed together. Control solutions without drug are also used.
4. The virus and drug are incubated for an appropriate period of time, in this example, thirty minutes.
5. The numbers of active viral particles in the solution are assayed as in items 4 and 5 under A.
The results are shown below (Table 6). In the Table, the figures are concentrations of viral particles present after incubation of the virus for 30 minutes with solutions of the drugs.

For another series, the system named is HTLV-IIIB. The series is described as follows: Anti-HIV activity assay, HTLV-IIIB (MT-4 cells, MTT method). Type of series: cell-based. The conditions noted are these: for Selectivity index (SI): CD50/ED50, HTLV-IIIB; for EC50: Human immunodeficiency virus 1, MT4, 120 h, MT-4 cells, five days, HTLV-IIIB, read-out: ED50 (50% effective dose). As to the method: (§1) Results in relation to HIV virus were obtained by the method of Pauwels et al, Journal of Virological Methods 20, 309 to 321 (1988), as follows:
(§2) MT-4 cells (2.5×10^4 /well) were infected with HIV (100 CCID50) and incubated in the presence of varying concentrations of the test compounds (added immediately after virus infection). After five days incubation at 37° C. in a CO2 incubator, the number of viable cells was assessed by the MTT (tetrazolium) method. Anti-viral activity and cytotoxicity of the compounds are expressed as ED50 (50% effective dose) and CD50 (50% cytotoxic dose), respectively. SI (selectivity index=CD50 /ED50.
(§3) These are given in Table 8 and Table 9 below in relation to HTLV-IIIB and LAV-2ROD viruses.
On the technique in general: Tetrazolium dyes change colour on reduction, which living cells bring about.

A short description of the next series: in vitro. Type of series: cell-based. The conditions noted are these: human, mt-4 cells, CD50 (50% cytotoxic dose). As to the method: as §1, §2
Another series deals with MT-4 cells. The series is described as follows: in vitro. Type of series: cell-based. The conditions noted are these: human, 120 h. As to the method: as §1, §2
A further series concerns LAV-2ROD. Description: Anti-HIV activity assay, LAV-2ROD (MT-4 cells, MTT method). In kind it is cell-based. The conditions noted are these: for Selectivity index (SI): CD50/ED50, LAV-2ROD; for EC50: MT4, 120 h, MT-4 cells, five days, LAV-2ROD, read-out: ED50 (50% effective dose). The method, then:
as §1, §2, §3

Series [2] concerns herpes simplex virus Type I (HSV I). The series is described as follows: Inhibition of virus replication (plaque assay, BHK-21 cells). In kind it is cell-based, Type 1, Troisbel strain. The conditions noted are these: for Inhibition of viral replication (in words): up to 100 mg/l; for log reduction at 1 µg/mL: 1 mg/l; for log reduction at 5 µg/mL: 5 mg/l. As to the method: 1. Mono-layers of baby hamster kidney cells (BHK-21) are prepared in Petri dishes containing ETC medium (Eagle's minimal essential medium +10% tryptose phosphate broth +10% new born calf serum).
2. After incubation the medium is poured off to leave the layer of cells attached to the Petri dish. A solution containing virus, specifically herpes simplex virus Type I (HSV I) for example, in ETC medium is then added to the dish and incubated with intermittent rocking for one hour to allow the virus to adsorb to the cells of the mono-layer. Unadsorbed virus is then removed by pouring off the virus-containing medium and washing twice with new sterile medium. Then new medium is added to each Petri dish. At this stage various concentrations of drug can be added to the medium.
3. […] First the dishes are frozen to -70° C. and thawed to disrupt the mono-layer and break up the cells. Then the medium and the disrupted cells are transferred to bijou bottles and sonicated to break down the cells completely and to release all the virus particles the cells contain. The sonicated medium is then diluted with fresh sterile ETC medium to give concentrations of the original Petri dish fluid of 10^-2, 10^-4, 10^-6 and 10^-8.
4. The number of virus particles (plaque forming units) in the dilutions is then assayed. A standard number of BHK cells (usually 8×10^6) is added to 2 ml of the diluted solutions and incubated for one hour, with cautious, gentle shaking, and 8 ml of Eagle's minimal essential medium +2% new born calf serum + carboxymethyl cellulose is then added to the cell suspension. This medium has gelling properties which prevent spreading of the virus through the medium and which encourage the formation of discrete plaques in cell mono-layers. The medium from each dilution is then dispensed into Petri dishes and incubated for two to three days.
5. The number of plaques formed is then counted and the amount of active virus expressed as the number of plaque forming units (pfus) as follows. The medium is poured off and the cell mono-layer is fixed using 10% formol saline and stained with dilute carbol fuchsin. The number of plaques in each Petri dish is counted. Based on the dilutions, the number of plaque forming virus particles in the original solutions is calculated.
In the Table, the figures are the concentration of viral particles in pfu/ml present in the cells + medium at the end of the replication stage (3).

Another series can be described thus: Absolute solubilities. In kind it is physicochemical.
[3] abbreviates: Human alphaherpesvirus 1, 0.5 h, read-out: Inactivation of virus (log10 reduction in virus titre).
Where [4] appears, read: Human alphaherpesvirus 1, BHK-21, 24 h, read-out: Inhibition of viral replication (log10 reduction in virus titre).

For the compound `CCCCC/C=C\C/C=C\CCCCCCCC(=O)OC[C@H]1O[C@@H](n2cc(C)c(=O)[nH]c2=O)C[C@@H]1N=[N+]=[N-]` [AK 2], the “% in chloroform phase (partition co-efficients, water/chloroform)” value is given as > 99%. For the same compound, the “Virucidal activity / inactivation of herpes virus (in words)” value (from here on “Virucidal activity / inactivation”) in series [1] is given as “virucidal”. Further, in series [1] (setting [3]), the log reduction at 1 µg/mL came out at 2.2 and the log reduction at 5 µg/mL is 2.8. Also, the “Virucidal activity / inactivation” value in series [1] (listed as AZT-LA) is given as “able both to inactivate the herpes virus”. Further, in the series with HTLV-IIIB, the “Selectivity index (SI)” value came to 26008 and the EC50 stood at 0.000365 µg/mL (≈ 0.000689 µM). This compound also displayed a CC50 at 120 h in the series “in vitro” of 9.49 µg/mL (≈ 17.9 µM). Moreover, the “CD50 (50% cytotoxic dose)” value in the series on MT-4 cells came to 5.9512 µg/mL. In addition, in the series on LAV-2ROD, the “Selectivity index (SI)” value is on record as 7999 and the EC50 is 0.000744 µg/mL (≈ 0.0014 µM). Moreover, in series [2], the “Inhibition of herpes virus replication (in words)” value is “to inhibit its replication” and the “Inhibition of viral replication (in words)” value is listed as “no inhibition”.
Take `CCCCC/C=C\C/C=C\C/C=C\CCCCC(=O)OC[C@H]1O[C@@H]2C[C@H]1Oc1nc(=O)c(C)cn12` [AK 3, GLA - Anhydrothymidine]: the “% in chloroform phase (partition co-efficients, water/chloroform)” value is > 98%. In addition, the “Virucidal activity / inactivation” value in series [1] was “virucidal”. In addition, the log reduction at 0.5 µg/mL in series [1] (Human alphaherpesvirus 1, 0.5 h, 0.5 mg/l, read-out: Inactivation of virus (log10 reduction in virus titre)) amounted to 1.6. In addition, the log reduction at 1 µg/mL in series [1] (setting [3]) was determined as 2.7. Moreover, in the series on HTLV-IIIB, the “Selectivity index (SI)” value is < 1 and the EC50 was > 40 µg/mL. This compound had a CC50 at 120 h in the series “in vitro” of 17.7 µg/mL (≈ 36.6 µM). Further, in the series with MT-4 cells, the “CD50 (50% cytotoxic dose)” value is 16.8593 µg/mL. For the same compound, in the series on LAV-2ROD, the “Selectivity index (SI)” value was < 1 and the EC50 was > 40 µg/mL. For the same compound, the log reduction at 25 µg/mL in series [2] (Human alphaherpesvirus 1, BHK-21, 24 h, 25 mg/l, read-out: Inhibition of viral replication (log10 reduction in virus titre)) is 0.5. The log reduction at 50 µg/mL in series [2] (Human alphaherpesvirus 1, BHK-21, 24 h, 50 mg/l, read-out: Inhibition of viral replication (log10 reduction in virus titre)) was found to be 0.9. Further, in series [2] (Human alphaherpesvirus 1, BHK-21, 24 h, 100 mg/l, read-out: Inhibition of viral replication (log10 reduction in virus titre)), the log reduction at 100 µg/mL was found to be 1.2.
For `CCCCC/C=C\C/C=C\CCCCCCCC(=O)OC[C@H]1O[C@@H]2C[C@H]1Oc1nc(=O)c(C)cn12` [AK 4], the “% in chloroform phase (partition co-efficients, water/chloroform)” value is listed as > 99%. The “Virucidal activity / inactivation” value in series [1] was “virucidal”. For the same compound, in series [1] (setting [3]), the log reduction at 1 µg/mL turned out to be 2.75 and the log reduction at 5 µg/mL was 2.9. Further, in the series with HTLV-IIIB, the “Selectivity index (SI)” value is < 1 and the EC50 is > 40 µg/mL. The midpoint of cytotoxicity in the series “in vitro”, the CC50 at 120 h, lay at 18.2 µg/mL (≈ 37.3 µM). Further, in the series on MT-4 cells, the “CD50 (50% cytotoxic dose)” value is 17.4332 µg/mL. In the series on LAV-2ROD, the “Selectivity index (SI)” value is reported as < 1 and the EC50 is > 40 µg/mL. Moreover, the “Inhibition of viral replication (in words)” value in series [2] is listed as “no inhibition”.
In the case of `CCCCC/C=C\C/C=C\CCCCCCCC(=O)OCCOCn1cnc2c(=O)[nH]c(N)nc21` [AK 6], the “% in chloroform phase (partition co-efficients, water/chloroform)” value was > 99%. Moreover, the solubility in “Absolute solubilities” (chloroform, organic solvent or mixture, CHCl3 98 to 99% pure, with 1% balance ethanol to stabilise, read-out: Absolute solubility in CHCl3) was > 50000 µg/mL. The solubility in the series “Absolute solubilities” (in water, read-out: Absolute solubility in water) came to 14 µg/mL (≈ 28.7 µM). Besides, in series [1], the “Virucidal activity / inactivation” value is given as “lacking in this activity”. Besides, in series [1] (up to 50 mg/l), the “Inactivation of virus (in words)” value is “no inactivation”. For the same compound, in the series with HTLV-IIIB, the “Selectivity index (SI)” value is given as < 1 and the EC50 was > 40 µg/mL. In the series on LAV-2ROD, the “Selectivity index (SI)” value is < 1 and the EC50 was > 100 µg/mL. Moreover, in series [2] (setting [4]), the log reduction at 1 µg/mL amounted to 2.4 and the log reduction at 5 µg/mL turned out to be 4.2.
With `CCCCC/C=C\C/C=C\CCCCCCCC(=O)Nc1nc2c(ncn2COCCOC(=O)CCCCCCC/C=C\C/C=C\CCCCC)c(=O)[nH]1` [AK 11], the “% in chloroform phase (partition co-efficients, water/chloroform)” value is listed as > 99%. Further, the “Virucidal activity / inactivation” value in series [1] is listed as “virucidal; also recorded: very effective”. Also, in series [1] (setting [3]), the log reduction at 1 µg/mL stood at 0.15 and the log reduction at 5 µg/mL amounted to 1.55. For the same compound, in the series with HTLV-IIIB, the “Selectivity index (SI)” value is recorded as < 1 and the EC50 was > 40 µg/mL. This compound displayed a CC50 at 120 h in the series “in vitro” of 13.1 µg/mL (≈ 17.5 µM). Further, the “CD50 (50% cytotoxic dose)” value with MT-4 cells is 10.1674 µg/mL. In addition, in the series on LAV-2ROD, the “Selectivity index (SI)” value was < 1 and the EC50 is > 40 µg/mL. In series [2], the “Inhibition of herpes virus replication (in words)” value was “very effective”. In series [2] (setting [4]), the log reduction at 1 µg/mL turned out to be 1.69 and the log reduction at 5 µg/mL was 2.46.
